system: A549 cells; assay: Growth inhibition of siRNA-transfected A549 cells, SYBR Green I DNA content; format: cell-based, human; settings: 10 nM siRNA; DNA content 96 hours after transfection
Description: A549 cells (human lung cancer cell line; ATCC No. CCL-185), SK-MeI-5 cells (human melanoma cell line; ATCC No. HTB-70), MCF-7 cells (human adenocarcinoma cell line; ATCC No. HTB-22), HCT-116 cells (colorectal carcinoma; ATCC CCL-247) and HCT-116 p53 null cells (derived from ATCC No. CCL-247; Bunz et al., Science 282:1497-1501, 1998) were cultured in RPMI 1640 medium with 10% v/v heat-inactivated fetal calf serum (FCS). Cells were seeded at a density of 5×10^4 cells/cm^2 in multi-well tissue culture plates. Sequences of Stealth™ siRNA duplexes (Invitrogen) targeting human ribonucleotide reductase subunit 1 (SEQ ID NO: 22) and subunit 2 (SEQ ID NO; 38) are given in SEQ ID NO: 4830-4832 (DNA), and SEQ ID NO: 5136-5138 (RNA) for RRM1, and SEQ ID NO: 5306-5308 (DNA), and SEQ ID NO: 5303-5305 (RNA) for RRM2. siRNAs were transfected at different concentrations into cells using Lipofectamine™ RNAiMAX transfection reagent (Invitrogen). Non-specific siRNA (SEQ ID NO: 4804 and 4805 (DNA), and SEQ ID NO: 5301 and 5302 (RNA)) were used as controls. The cellular DNA content was measured using a SYBR Green I-based fluorometric assay at 24, 48, 72 and 96 hours after transfection (120 hours for the MCF-7 cells), as follows. At the indicated time points following reverse transfection, cells were harvested and frozen at −80° C. overnight. Cells were thawed and cell lysis buffer (phosphate-buffered saline (PBS) containing 1% Triton X-100, pH 7) and SYBR Green I (1:10^5 V/V; Invitrogen) was added to the wells and incubated overnight in the dark at 4° C.
The following day, cell lysates were mixed thoroughly, and DNA fluorescence was measured with a Wallac Victor^2 plate reader (Turku, Finland) set at an excitation frequency of 485 nm and measuring emission at 535 nm.
To determine the duration of the knock-down effect of RRM1-targeting siRNA, A549 cells were reverse transfected with 1 or 10 nM RRM1-3 (SEQ ID NO: 4832 (DNA, and SEQ ID NO: 5138 (RNA)) or control siRNA (SEQ ID NO: 4804 (DNA), and SEQ ID NO: 5301 (RNA)), and growth followed over time. Growth inhibition was measured daily as described above for up to ten days. RRM1-3-mediated RRM1 silencing inhibited growth for at least 10 days post-transfection at both 1 and 10 nM (FIG. 11).
siRNA-mediated inhibition of cancer cell growth was determined in A549 cells as follows. A549 cells (human lung cancer cell line; ATCC No. CCL-185) were cultured in RPMI 1640 medium with 10% v/v heat-inactivated fetal calf serum. Cells were seeded at a density of 5×10^3 cells/cm^2 in multi-well tissue culture plates. Stealth™ siRNA duplexes (Invitrogen) targeting genes involved in cancer energy and metabolism pathways and listed in Table 9, were transfected at 10 nM into cells using Lipofectamine™ RNAiMAX transfection reagent (Invitrogen). Non-specific siRNA (SEQ ID NO: 4804 and 4805 (DNA), and SEQ ID NO: 5301 and 5302 (RNA)) were used as controls. The cellular DNA content was measured using a SYBR Green I-based fluorometric assay at 96 hours after transfection. The cells were harvested and frozen at −80° C. overnight. Cells were thawed and cell lysis buffer (phosphate-buffered saline (PBS) containing 1% Triton X-100, pH 7) and SYBR Green I (1:10^5 v/v; Invitrogen) was added to the wells and incubated overnight in the dark at 4° C. The following day, cell lysates were mixed thoroughly, and DNA fluorescence was measured with a Wallac Victor^2 plate reader (Turku, Finland) set at an excitation frequency of 485 nm and measuring emission at 535 nm.
Three different siRNAs were tested for each target gene. The average fluorescence units from three replicate wells, representing the amount of DNA per well, were used to determine the effect on growth inhibition. The results are given in Table 10 (energy and metabolism gene targets) and Table 11 (transporter gene targets).
siRNA-mediated RNAi was also determined on a panel of different cell lines. […]

Q: With “SEQ ID NO: 4873: siRNA targeting RRM2B (chain 1 TTTACTAAGTATTGGAACATCAGGC; chain 2 UUUACUAAGUAUUGGAACAUCAGGC; Both strands are one antisense strand in DNA/RNA notation, chemistry not given here, further chemistry not given here; one strand in two spellings)” as the substance, how does the “Growth Inhibition in A549 cells” value read?
A: − (no growth inhibition with any siRNA)

Q: Which “Growth Inhibition in A549 cells” value does the source give for “SEQ ID NO: 4836: siRNA targeting DHFR (chain 1 AATATCTGAATTCATTCCTGAGCGG; chain 2 AAUAUCUGAAUUCAUUCCUGAGCGG; chemistry not given here; one strand in two spellings)” here?
A: + (inhibits by at least 50%)

Q: How did the “Growth Inhibition in A549 cells” value turn out when “SEQ ID NO: 4863: siRNA targeting SLC25A6 (ANT3) (chain 1 AAAGTACCTCCAGAACTGCGTGTGC; chain 2 AAAGUACCUCCAGAACUGCGUGUGC; Both strands are one antisense strand in DNA/RNA notation, chemistry not given here, further chemistry not given here; one strand in two spellings)” was run?
A: ++ (inhibits by at least 75%)

Q: How did the “Growth Inhibition in A549 cells” value turn out when “SEQ ID NO: 4841: siRNA targeting AK1 (chain 1 AAACTCTTCTCCTTGCTGCACCTCC; chain 2 AAACUCUUCUCCUUGCUGCACCUCC; chemistry not given here; one strand in two spellings)” was run?
A: − (no growth inhibition with any siRNA)

Q: Which “Growth Inhibition in A549 cells” value does the source give for “SEQ ID NO: 4864: siRNA targeting SLC25A6 (ANT3) (chain 1 AAATCCAGCGGGTACACGAAGCAGA; chain 2 AAAUCCAGCGGGUACACGAAGCAGA; Both strands are one antisense strand in DNA/RNA notation, chemistry not given here, further chemistry not given here; one strand in two spellings)” here?
A: − (no growth inhibition with any siRNA)

Q: For “SEQ ID NO: 4824: siRNA targeting CPS1 (chain 1 ATATGATGCAGCCACCACATGCCTC; chain 2 AUAUGAUGCAGCCACCACAUGCCUC; chemistry not given here; one strand in two spellings)”, which “Growth Inhibition in A549 cells” value is on record?
A: ++ (inhibits by at least 75%)

Q: With “SEQ ID NO: 5002: siRNA targeting DPYD (chain 1 GCCACTGAAGAGGGACCCATTAATA; chain 2 GCCACUGAAGAGGGACCCAUUAAUA; chemistry not given here; one strand in two spellings)” as the substance, how does the “Growth Inhibition in A549 cells” value read?
A: − (no growth inhibition with any siRNA)

Q: “SEQ ID NO: 4809: siRNA targeting H6PD (G6PDH) (chain 1 TTTGCCAGACATCAGGATGAAAGGC; chain 2 UUUGCCAGACAUCAGGAUGAAAGGC; chemistry not given here; one strand in two spellings)” was tested. Which “Growth Inhibition in A549 cells” value did it give?
A: ++ (inhibits by at least 75%)

Q: How did the “Growth Inhibition in A549 cells” value turn out when “SEQ ID NO: 4810: siRNA targeting H6PD (G6PDH) (chain 1 TCTTGAACAAGATCCGAGCGTAGCC; chain 2 UCUUGAACAAGAUCCGAGCGUAGCC; chemistry not given here; one strand in two spellings)” was run?
A: − (no growth inhibition with any siRNA)

Q: With “SEQ ID NO: 4848: siRNA targeting COX5A (chain 1 ATAGCAGCGAACTGACTGGATAGCC; chain 2 AUAGCAGCGAACUGACUGGAUAGCC; chemistry not given here; one strand in two spellings)” as the substance, how does the “Growth Inhibition in A549 cells” value read?
A: ++ (inhibits by at least 75%)

Q: “SEQ ID NO: 4993: siRNA targeting TK2 (chain 1 GGAAGACGACATGCCTGGAATTCTT; chain 2 GGAAGACGACAUGCCUGGAAUUCUU; chemistry not given here; one strand in two spellings)” was tested. Which “Growth Inhibition in A549 cells” value did it give?
A: − (no growth inhibition with any siRNA)

Q: Which “Growth Inhibition in A549 cells” value does the source give for “SEQ ID NO: 4868: siRNA targeting UQCRC2 (chain 1 TTGCGGTCACACTTAATTTGCCACC; chain 2 UUGCGGUCACACUUAAUUUGCCACC; Both strands are one antisense strand in DNA/RNA notation, chemistry not given here, further chemistry not given here; one strand in two spellings)” here?
A: + (inhibits by at least 50%)

Q: How did the “Growth Inhibition in A549 cells” value turn out when “SEQ ID NO: 4867: siRNA targeting UQCRC2 (chain 1 AAATGCATTTGCCTCTGCACTTCCC; chain 2 AAAUGCAUUUGCCUCUGCACUUCCC; Both strands are one antisense strand in DNA/RNA notation, chemistry not given here, further chemistry not given here; one strand in two spellings)” was run?
A: − (no growth inhibition with any siRNA)

Q: “SEQ ID NO: 4822: siRNA targeting PRPS1 (chain 1 TCCACATTCAGCCTGTCTGCAATGG; chain 2 UCCACAUUCAGCCUGUCUGCAAUGG; chemistry not given here; one strand in two spellings)” was tested. Which “Growth Inhibition in A549 cells” value did it give?
A: − (no growth inhibition with any siRNA)

Q: How did the “Growth Inhibition in A549 cells” value turn out when “SEQ ID NO: 4811: siRNA targeting H6PD (G6PDH) (chain 1 TTATGGAGACATGTCCCTGGAGCTC; chain 2 UUAUGGAGACAUGUCCCUGGAGCUC; chemistry not given here; one strand in two spellings)” was run?
A: − (no growth inhibition with any siRNA)

Q: How did the “Growth Inhibition in A549 cells” value turn out when “SEQ ID NO: 4986: siRNA targeting DCK (chain 1 ACGATCTGTGTATAGTGACAGGTAT; chain 2 ACGAUCUGUGUAUAGUGACAGGUAU; Both strands are one antisense strand in DNA/RNA notation, chemistry not given here, further chemistry not given here; one strand in two spellings)” was run?
A: − (no growth inhibition with any siRNA)

Q: For “SEQ ID NO: 4825: siRNA targeting CPS1 (chain 1 AATACCTTCACCAAAGCAAGCCACC; chain 2 AAUACCUUCACCAAAGCAAGCCACC; chemistry not given here; one strand in two spellings)”, which “Growth Inhibition in A549 cells” value is on record?
A: − (no growth inhibition with any siRNA)

Q: Which “Growth Inhibition in A549 cells” value does the source give for “SEQ ID NO: 4998: siRNA targeting UMPS (chain 1 GAGTTGTGAAAGGCCTGCAAGAAGT; chain 2 GAGUUGUGAAAGGCCUGCAAGAAGU; chemistry not given here; one strand in two spellings)” here?
A: − (no growth inhibition with any siRNA)

Q: With “SEQ ID NO: 4997: siRNA targeting DGUOK (chain 1 GCCAGGAAGCCAGTACAGATCTTTG; chain 2 GCCAGGAAGCCAGUACAGAUCUUUG; chemistry not given here; one strand in two spellings)” as the substance, how does the “Growth Inhibition in A549 cells” value read?
A: + (inhibits by at least 50%)

same assay, conditions: 10 nM siRNA; up to 120 hours post-transfection (FIG. 8)

Q: For “SEQ ID NO: 4873: siRNA targeting RRM2B (chain 1 TTTACTAAGTATTGGAACATCAGGC; chain 2 UUUACUAAGUAUUGGAACAUCAGGC; Both strands are one antisense strand in DNA/RNA notation, chemistry not given here, further chemistry not given here; one strand in two spellings)”, which “growth inhibition, A549” value is on record?
A: No inhibition of growth

same assay, conditions: A549 cells, 10 nM siRNA, DNA content 96 hours after transfection, transporter gene targets

Q: “SEQ ID NO: 4950: siRNA targeting ATP6V1A (chain 1 TTTCATGGAGGAAAGTTTATAGAGG; chain 2 UUUCAUGGAGGAAAGUUUAUAGAGG; chemistry not given here; one strand in two spellings)” was tested. Which “Growth Inhibition in A549 cells by 10 nM siRNA” value did it give?
A: − (no growth inhibition)

Source: patent US20080145313A1, “Compositions and Methods for the Treatment and Prevention of Neoplastic Disorders” (Genesis Research & Development Corporation Limited, priority 2006, published 2008)
